Experimental findings from patent US6825180B2, “Pyridopyrimidine compounds and their uses” (Cell Therapeutics, Inc., priority 2001, dated 2004) are described below.

Where “and” joins values, the source holds several entries; their conditions need not be identical. Equal entries are not always repeated. Structures can show the parent of a compound that is named as a salt. A value given as a limit tells only on which side of the number the result lay.

For assay [1], the system named is IL-12 signaling. As to the kind of experiment: IL-12 dependent in vitro T-helper cell (Th1) differentiation assay. Format: cell-based. Conditions: inhibition of IL-12 induced Th1 differentiation as defined by IFN-γ production upon secondary stimulation with anti-CD3 alone, splenic T cells, seven days culture. On the procedure:
This example illustrates the inventive compounds' ability to suppress Th1 differentiation in vitro by blocking IL-12 signaling. The compounds from Examples 1, 2, 6, and 7 were tested in an IL-12 dependent in vitro T-helper cell differentiation assay as described in LeGross et al., J. Exp. Med., 172:921-929 (1990). Recombinant IL-12 was used to induce Th1 differentiation. Splenic T cells were purified utilizing the antibodies RA3-3A1/6.1 (anti-B220), J11d and MAR18.5 (anti-rat kappa chain) to deplete the B cells by magnetic bead separation, as described in Coon et al, J. Immuno., 163:6567-6574 (1989). Splenic T cells were stimulated at 5×10^5/ml with insoluble anti-CD3 alone (145-2C11, Pharmingen, San Diego, Calif.), or anti-CD3 and 5 U/ml IL-12, with and without each inventive compound. After seven days, equal numbers of viable cells were restimulated for 24 hours with anti-CD3 without the inventive compounds, and the supernatants were collected and assayed for IFN—γ production. IFN-γ and IL-4 levels were measured by ELISA test specific for IFN-γ and IL-4.
Th1 differentiation was induced by culturing anti-CD3 stimulated T cells in the presence of exogenous IL-12. […] It was observed that the presence of the tested compounds during T cell activation inhibited Th1 differentiation, which had been enhanced by the addition of exogenous IL-12. The values in the “IC50 μM” column were determined by measuring the inhibition of IL-12 induced Th1 differentiation as defined by IFN-γ production upon secondary stimulation with anti-CD3 alone. None of the compounds affected the viability or recovery of T cells after one week of culture.

Assay [2] concerns IL-12 signaling. Put plainly: Modified acute assay. Format: cell-based. The conditions noted are these: T-cell, 72 h, purified splenic T cells, anti-CD3 or lectin stimulation, Interferon-γ by ELISA. On the procedure:
The compounds of Examples 3-10 were tested in a modified acute assay which is used to screen for compounds that perturb IL-12 signaling. The assay measures the biological effects of compounds on IL-12 signaling during the differentiation of T1 responses rather than the outcome of differentiation, as measured using a T1 Differentiation Assay. Purified splenic T cells were stimulated either by crosslinking their T cell receptors with immobilized anti-CD3 antibody or by binding with a soluble lectin (e.g. Conconavalin A). The cells were incubated for 72 hours after which time supernatants are collected and relative Interferon-γ amounts determined by ELISA. The Modified Acute Assay measured a directed IL-12 response derived from a population of cells in a variety of activation states and can be thought of as a more stochastic response.
For orientation: ELISA stands for enzyme-linked immunosorbent assay.

As usually defined, the IC50 is the concentration that inhibits the measured activity by half. Regarding `Cc1cc(=O)c2c(=O)n(CCCC[C@@H](C)O)c(=O)n(C)c2[nH]1` [Example 1, (R)-1,7-Dimethyl-3-(5-hydroxyhexyl)pyrido[2,3-d]pyrimidine-2,4,5(1H,3H,8H)-trione], the IC50 in the assay with IL-12 signaling [1] (T-cell, 168 h) was 19 µM; with IL-12 signaling [1], 24 µM and 28 µM.

In turn, `CO[C@H](C)CCCCn1c(=O)c2c(=O)cc(C)[nH]c2n(C)c1=O` [Example 2, (R)-1,7-Dimethyl-3-(5-methoxyhexyl)pyrido[2,3-d]pyrimidine-2,4,5(1H,3H,8H)-trione] came in with an IC50 in the assay with IL-12 signaling [1] (T-cell, 168 h) of 7 µM.

In the case of `CNc1cc(C)nc2c1c(=O)n(CCCC[C@@H](C)O)c(=O)n2C` [Example 3, (R)-1,7-Dimethyl-3-(5-hydroxyhexyl)-5-(N-methylamino)pyrido[2,3-d]pyrimidine-2,4(1H,3H)-dione], the IC50 in the assay with IL-12 signaling [2] is below 10 µM.

In turn, `Cc1cc(=O)c2c(=O)n(CCCC[C@@H](C)O)c(=O)n(C)c2n1Cc1ccccc1` [Example 5, (R)-8-Benzyl-1,7-dimethyl-3-(5-hydroxyhexyl)pyrido[2,3-d]pyrimidine-2,4,5(1H,3H,8H)-trione] came in with an IC50 in the assay with IL-12 signaling [2] of 8 µM.

As to `Cc1cc(=O)c2c(=O)n(CCCC[C@@H](C)N(C)C)c(=O)n(C)c2[nH]1` [Example 6, (R)-1,7-Dimethyl-3-(5-(N,N-dimethylamino)hexyl)pyrido[2,3-d]pyrimidine-2,4,5(1H,3H,8H)-trione, Acetic Acid Salt], the IC50 in the assay with IL-12 signaling [1] (T-cell, 168 h) worked out at 14 µM; with IL-12 signaling [1] (Acetic Acid Salt), 16 µM; in the assay with IL-12 signaling [2], 9 µM.

With `Cc1cc(N(C)C)c2c(=O)n(CCCC[C@@H](C)N(C)C)c(=O)n(C)c2n1` [Example 7, (R)-1,7-Dimethyl-5-(N,N-dimethylamino)-3-(5-(N,N-dimethylamino)hexyl)pyrido[2,3-d]pyrimidine-2,4(1H,3H)dione], the IC50 in the assay on IL-12 signaling [1] (T-cell, 168 h) is above 40 µM; in the assay with IL-12 signaling [2], 26 µM.

The compound `Cc1cc(C)c2c(=O)n(CCCC[C@@H](C)O)c(=O)n(C)c2n1` [Example 8, (R)-3-(5-Hydroxyhexyl)-1,5,7-trimethylpyrido[2,3-d]pyrimidine-2,4(1H,3H)-dione] yielded an IC50 with IL-12 signaling [2] of 33 µM.

Regarding `Cc1cc(=O)[nH]c2c1c(=O)n(CCCC[C@@H](C)O)c(=O)n2C` [Example 9, (R)-1,5-Dimethyl 3-(5-hydroxyhexyl)pyrido[2,3-d]pyrimidine-2,4,7(1H,3H,8H)-trione], in the assay on IL-12 signaling [2], the IC50 is above 40 µM.

For the compound `Cc1cc(N(C)C)nc2c1c(=O)n(CCCC[C@@H](C)O)c(=O)n2C` [Example 10, (R)-1,5-Dimethyl-7-(N,N-dimethylamino)-3-(5-hydroxyhexyl)-2,4-pyrido[2,3-d]pyrimidine-2,4(1H,3H)-dione], in the assay on IL-12 signaling [2], 6 µM corresponded to half-maximal inhibition (IC50).
